Measurements taken from US11597739B2, “Enhancing CD8+ T cells for adoptive T cell therapy by inhibiting PTPN1 (PTP1B) and PTPN2 (TC-PTP)” (The Royal Institution for the Advancement of …, priority 2017, dated 2023).

Target: TC-PTP (Homo sapiens (Human), UniProt P17706)
Assay: Enzyme assay for TC-PTP
Type: biochemical
Conditions: inhibition of TC-PTP enzymatic activity
Procedure: 1) Enzyme Assay for TC-PTP
The assay was carried out at room temperature in 96 well plates. The reaction mixture in 170 μl contained 50 mM Bis-Tris (pH=6.3), 2 mM EDTA, 5 mM N,N′-dimethyl-N,N′bis(mercaptoacetyl)hydrazine (DMH) and 10 μM fluorescein diphosphare (FDP) or 6,8-difluoro-4-methylumbelliferyl phosphate (DiFMUP). 10 μl of 10 concentrations (serial dilution) of the test compound (inhibitor) dissolved in DMSO or DMSO alone for control was added to each well and the plate was mixed for 2 min. The reaction was initiated by adding 20 μl of diluted TC-PTP (50 nM for FDP, 0.5 nM for DiFMUP in 50 mM Bis/Tris (pH=6.3), 2 mM EDTA, 5 mM DMH, 20% glycerol and 0.01% Triton X-100. The phosphatase activity was followed by monitoring the appearance of the fluorescent product fluorescein monophosphate (FMP) or 6,8-difluoro-7-hydroxyl-4-coumarin (DiFMU) continuously for 15-30 min, using the Spectromax Gemini fluorescent plate reader ([…]) with excitation of 440 nm and emission at 530 nm (cutoff filter at 525 nm) for FDP and excitation at 360 nm and emission at 450 nm (cutoff filter at 435 nm) for DiFMUP. All the assays were done at least in duplicate. The initial rate of FMP or DiFMU formation is plotted against the concentration of inhibitor and the data was fitted to 4-parameter equation and the inflection point of the fit is the IC50.

Sequence of TC-PTP (P17706 whole entry, species assumed): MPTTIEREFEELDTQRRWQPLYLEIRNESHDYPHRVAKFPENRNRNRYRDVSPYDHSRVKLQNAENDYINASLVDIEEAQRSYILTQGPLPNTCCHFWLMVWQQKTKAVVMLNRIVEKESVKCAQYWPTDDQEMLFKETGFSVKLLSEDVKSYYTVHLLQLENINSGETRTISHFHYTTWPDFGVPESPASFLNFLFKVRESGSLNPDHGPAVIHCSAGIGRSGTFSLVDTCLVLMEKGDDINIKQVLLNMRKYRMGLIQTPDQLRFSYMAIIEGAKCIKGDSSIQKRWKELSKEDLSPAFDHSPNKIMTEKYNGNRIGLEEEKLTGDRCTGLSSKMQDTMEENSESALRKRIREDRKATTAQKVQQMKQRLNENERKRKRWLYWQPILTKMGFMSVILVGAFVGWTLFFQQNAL

In the case of “[(3-BROMO-7-CYANO-2-NAPHTHYL)(DIFLUORO)METHYL]PHOSPHONATE [Ex. 10]”, the IC50 is reported as 490 nM.
